Source: patent US8334261B2, “Osteopenia animal model” (Oriental Yeast Co., Ltd., priority 2006, dated 2012)

Tests used:
[1] = tested on: GST-RANKL-administered 7-week-old female C57BL/6N mice; assay: Evaluation of RANKL-signal-inhibiting compound (LFM-A13) in osteopenia mouse models; assay type: in vivo
Experimental: GST or GST-RANKL (20 μg) was administered 3 times to 7-week-old female C57BL/6N mice every 24 hours. LFM-A13 (20 mg/kg body weigh) or physiological saline was administered thereto 1 hour before GST-RANKL administration. Measurement of the serum Ca concentration and bone morphology measurement was carried out 1.5 hours after the 3rd GST-RANKL administration. In addition, 3D image analysis was carried out with micro CT.

[2] = tested on: GST-RANKL-administered 7-week-old female C57BL/6 mice; assay: Comparison of a plurality of bisphosphonates in GST-RANKL mice; assay type: in vivo, mouse; details: for dose at which the effects were exhibited: s.c. from the day before GST-RANKL
Experimental: GST-RANKL was intraperitoneally administered 3 times at 1 mg/kg every 24 hours. The femur, tibia, and serum were collected from each mouse 1.5 hours after the 3rd GST-RANKL administration. Measurement of TRAP-5b, calcium (Ca), and alkaline phosphatase (ALP) in the serum was carried out. Each femur was subjected to bone density measurement with pQCT and image analysis with micro CT.

[3] = tested on: GST-RANKL-administered, ovariectomized 7-week-old female C57BL/6N mice; assay: Drug evaluation with a selective estrogen receptor modulator (raloxifene) in GST-RANKL/OVX mice; assay type: in vivo, mouse
Description: In addition, PBS (i.p.) and ultrapure water (p.o.) were used as control substances for comparison with GST-RANKL and raloxifene, respectively, upon administration.
The serum collected from each mouse was subjected to measurement of serum bone resorption markers (Ca and TRAP-5b) and an osteogenesis marker (ALP). Each femur was subjected to measurement of the bone density, the bone mineral content, and the cortical bone thickness with pQCT at points 0.6, 0.8, 1.0 mm from the distal growth plate on the proximal side. In addition, image analysis was carried out with micro CT.

[4] = tested on: GST-RANKL-administered 7-week-old female C57BL/6 mice; assay: Drug evaluation with bisphosphonate (risedronate) in GST-RANKL mice; assay type: in vivo, mouse
Experimental: Risedronate was separately administered via a subcutaneous route to groups of 7-week-old female C57BL/6 mice at doses of 3, 10, and 30 μg/kg every 24 hours from the day before GST-RANKL administration to the end of the experimentation. The femur and serum were collected from each mouse 1.5 hours after the 3rd administration of GST-RANKL. Measurement of TRAP-5b, calcium (Ca), and alkaline phosphatase (ALP) was carried out. Each femur was subjected to bone density measurement and image analysis with the use of pQCT.

[5] = tested on: GST-RANKL-administered 7-week-old female C57BL/6N mice; assay: Evaluation of an osteoporosis therapeutic agent (risedronate) with GST-RANKL-administered mice; assay type: in vivo, mouse
Experimental: GST-RANKL (426 nmol) was intraperitoneally administered 3 times to groups of 7-week-old female C57BL/6N mice (5 to 6 individuals each) every 24 hours. An osteoporosis therapeutic agent (risedronate) was subcutaneously administered at 0.01 mg/kg every 24 hours from 3 days before GST-RANKL administration. Administration of the agent was continued to the end of the experimentation every 24 hours. The serum, femur, and tibia were collected from each mouse 1.5 hours after the 3rd administration of GST-RANKL. Bone resorption parameters (calcium, CTx, and TRAP-5b) and osteogenesis parameters (osteocalcin and ALP) in the serum were measured. The femur bone density was determined with the use of pQCT and micro CT. Measurement values were compared with those for a control group by the Dunnett method for testing.

[6] = tested on: 7-week-old female C57BL/6N mice; assay: Production of osteopenia model mice with soluble RANKL; assay type: in vivo, mouse
Experimental: Soluble RANKL (produced by Peprotech) was intraperitoneally administered 3 times to groups of 7-week-old female C57BL/6N mice (10 individuals each) at doses of 57 and 426 nmol every 24 hours. The serum and femur were collected from each mouse 1.5 hours after the 3rd administration. Bone resorption markers and osteogenesis markers in the serum were measured. The bone density was measured with the use of pQCT at points 0.6, 0.8, and 1.0 mm from the distal growth plate on the proximal side of the femur.

[7] = raloxifene 1 or 10 mg/kg p.o. 14 days
[8] = combination of GST-RANKL and risedronate 0.01 mg/kg

C/C(O)=C(\C#N)C(=O)Nc1cc(Br)ccc1Br [LFM-A13]
bone mass decrease caused by GST-RANKL (micro CT) ([1]; LFM-A13 20 mg/kg 1 hour before GST-RANKL 20 μg): suppressed
decrease in the trabecular number (Tb.N) resulting from GST-RANKL ([1]; LFM-A13 20 mg/kg, p<0.01): significantly suppressed
decrease in unit bone mass (BV/TV) caused by GST-RANKL ([1]; LFM-A13 20 mg/kg, p<0.01): significantly suppressed
increase in the eroded surface area (ES/BS) resulting from GST-RANKL ([1]; LFM-A13 20 mg/kg, p<0.01): significantly suppressed
increase in the osteoclast number (N.Oc/B.Pm) resulting from GST-RANKL ([1]; LFM-A13 20 mg/kg, p<0.01): significantly suppressed
decrease in the trabecular width (Tb.Th) resulting from GST-RANKL ([1]; LFM-A13 20 mg/kg, p<0.05): significantly suppressed
increase in the serum Ca concentration resulting from GST-RANKL ([1]; LFM-A13 20 mg/kg, p<0.05): significantly suppressed

NCCCC(O)(P(=O)(O)O)P(=O)(O)O [alendronate]
serum Ca concentration vs RANKL administration ([2]; 300 μg/kg s.c., p<0.05): significantly decreased
increase in the TRAP-5b concentration ([2]; 300 μg/kg, p<0.01): significantly suppressed
dose at which the effects were exhibited [2]: 0.3 mg/kg

CC(O)(P(=O)(O)O)P(=O)(O)O [etidronate]
dose at which the effects were exhibited [2]: 30 mg/kg

O=C(c1ccc(OCCN2CCCCC2)cc1)c1c(-c2ccc(O)cc2)sc2cc(O)ccc12 [raloxifene]
cancellous bone density (pQCT) ([3]; among the all groups): no significant differences
cortical bone mineral content increase in GST-RANKL+OVX group ([3]; raloxifene 1 mg/kg, 0.8 mm): 93%
cortical bone thickness increase in GST-RANKL+OVX group ([3]; raloxifene 1 mg/kg, 0.8 mm): 101%
cortical bone mineral content increase in GST-RANKL+OVX group ([3]; raloxifene 1 mg/kg, 1.0 mm): 136%
cortical bone thickness increase in GST-RANKL+OVX group ([3]; raloxifene 1 mg/kg, 1.0 mm): 137%
total bone density increase in GST-RANKL+OVX group ([3]; raloxifene 1 mg/kg, 1.0 mm): 10%
serum ALP concentration ([3]; raloxifene 1 mg/kg, p<0.05): significantly decreased
cortical bone mineral content increase in GST-RANKL+OVX group ([3]; raloxifene 10 mg/kg, 0.6 mm): 87%
cortical bone thickness increase in GST-RANKL+OVX group ([3]; raloxifene 10 mg/kg, 0.6 mm): 92%
total bone density increase in GST-RANKL+OVX group ([3]; raloxifene 10 mg/kg, 0.6 mm): 10%
cortical bone mineral content increase in GST-RANKL+OVX group ([3]; raloxifene 10 mg/kg, 0.8 mm): 118%
cortical bone thickness increase in GST-RANKL+OVX group ([3]; raloxifene 10 mg/kg, 0.8 mm): 123%
total bone density increase in GST-RANKL+OVX group ([3]; raloxifene 10 mg/kg, 0.8 mm): 11%
cortical bone mineral content increase in GST-RANKL+OVX group ([3]; raloxifene 10 mg/kg, 1.0 mm): 137%
cortical bone thickness increase in GST-RANKL+OVX group ([3]; raloxifene 10 mg/kg, 1.0 mm): 133%
total bone density increase in GST-RANKL+OVX group ([3]; raloxifene 10 mg/kg, 1.0 mm): 11%
serum ALP concentration ([3]; raloxifene 10 mg/kg, p<0.01): significantly decreased
serum Ca concentration [3, 7]: no significant changes
serum TRAP-5b concentration [3, 7]: no significant changes

O=P(O)(O)C(O)(Cc1cccnc1)P(=O)(O)O [risedronate]
serum TRAP-5b decrease vs RANKL alone ([4]; risedronate 3 μg/kg s.c. every 24 hours): approximately 30%
bone density decrease suppressed to ([4]; risedronate 3 μg/kg, 0.6 mm): 12%
bone density decrease suppressed to ([4]; risedronate 3 μg/kg, 0.8 mm): 18%
bone density decrease suppressed to ([4]; risedronate 3 μg/kg, 1.0 mm): 24%
serum TRAP-5b decrease vs RANKL alone ([4]; risedronate 10 μg/kg s.c.): ~50%
bone density decrease suppressed to ([4]; risedronate 10 μg/kg, 0.6 mm): 13%
bone density decrease suppressed to ([4]; risedronate 10 μg/kg, 0.8 mm): 28%
bone density decrease suppressed to ([4]; risedronate 10 μg/kg, 1.0 mm): 30%
serum ALP concentration vs RANKL alone ([4]; risedronate 30 μg/kg): significantly decreased
serum TRAP-5b decrease vs RANKL alone ([4]; risedronate 30 μg/kg s.c.): ~70%
bone density decrease suppressed to ([4]; risedronate 30 μg/kg, 0.6 mm): 10%
bone density decrease suppressed to ([4]; risedronate 30 μg/kg, 0.8 mm): 18%
bone density decrease suppressed to ([4]; risedronate 30 μg/kg, 1.0 mm): 20%
serum CTx concentration decrease vs control group ([5]; combination of GST-RANKL 426 nmol and risedronate 0.01 mg/kg s.c.): approximately 30%
serum TRAP-5b concentration decrease vs control group ([5]; combination of GST-RANKL 426 nmol and risedronate 0.01 mg/kg s.c. every 24 hours): approximately 30%
femur bone density vs control [5, 8]: comparable to that for the control group
serum alkaline phosphatase concentration vs control [5, 8]: did not change
serum osteocalcin concentration vs control [5, 8]: did not change
serum Ca concentration vs RANKL administration ([2]; 1 μg/kg s.c., p<0.01): significantly decreased
increase in the TRAP-5b concentration ([2]; 1 μg/kg, p<0.05): significantly suppressed
increase in the TRAP-5b concentration ([2]; 10 μg/kg, p<0.01): significantly suppressed
serum Ca concentration vs RANKL administration ([2]; 100 μg/kg s.c., p<0.01): significantly decreased
bone density decrease suppressed to ([2]; 100 μg/kg, 0.6-mm point): 1%
increase in the TRAP-5b concentration ([2]; 100 μg/kg, p<0.01): significantly suppressed
dose at which the effects were exhibited [2]: 0.1 mg/kg

B1: Soluble RANKL: Soluble RANKL (produced by Peprotech) (protein, UniProt O14788 69-317, looked up)
extracellular domain: YFRAQMDPNRISEDGTHCIYRILRLHENADFQDTTLESQDTKLIPDSCRRIKQAFQGAVQKELQHIVGSQHIRAEKAMVDGSWLDLAKRSKLEAQPFAHLTINATDIPSGSHKVSLSSWYHDRGWAKISNMTFSNGKLIVNQDGFYYLYANICFRHHETSGDLATEYLQLMVYVTKTSIKIPSSHTLMKGGSTKYWSGNSEFHFYSINVGGFFKLRSGEEISIEVSNPSLLDPDQDATYFGAFKVRDID
modifications: extracellular domain
femur bone density decrease ([6]; 426 nmol): approximately 20%
serum CTx concentration, fold as high ([6]; 426 nmol): ~1.5 fold
serum alkaline phosphatase concentration ([6]; 426 nmol): did not vary
serum osteocalcin concentration ([6]; 426 nmol): did not vary
serum calcium concentration, fold as high ([6]; 426 nmol high dose i.p. 3 times): approximately 1.4 fold
serum TRAP-5b concentration, fold as high ([6]; 426 nmol, no significant difference): approximately 1.25 fold
